From the supplement of paper PMC4862054

Key:
Assay in all cases: normalised viability (% of control), CellTiter-Blue; higher = more viable cells (about 100 = DMSO control)
Settings in all cases: incubation time: 72 h
[1] = test system: BT-474
Procedure, shortened: (§1)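 Normalised viability is given for a single listed concentration of the series. In 384-well plates, breast cancer cell lines were incubated 72 h with compound, then read with CellTiter-Blue (2 h, 37 °C) at 560/590 nm. Per-plate scaling set vehicle to 100 and a positive kill control to 0, with Z'-factor quality control.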

[2] = test system: BT-549
Procedure, shortened: as §1

[3] = test system: CAL-120
Procedure, shortened: as §1

[4] = test system: CAL-148
Procedure, shortened: as §1

[5] = test system: CAL-85-1
Procedure, shortened: as §1

[6] = test system: HCC1599
Procedure, shortened: as §1

[7] = test system: HDQ-P1
Procedure, shortened: as §1

[8] = test system: MDA-MB-453
Procedure, shortened: as §1

[9] = test system: SK-BR-3
Procedure, shortened: as §1

Nc1nc(=O)c2c([nH]1)NCC(CNc1ccc(C(=O)N[C@@H](CCC(=O)O)C(=O)O)cc1)N2C=O (mixture of isomers) [Folinic acid]
normalised viability [%]
Settings | [1] | [2] | [3] | [4] | [5] | [6] | [7] | [8] | [9]
0.297 nM | – | – | – | 92.2 | 96.2 | – | 122 | 110 | –
0.99 nM | 106 | 100 | 105 | – | – | 111 | – | – | 95.3
2.97 nM | – | – | – | 88.9 | 93.9 | – | 115 | 109 | –
9.9 nM | – | – | – | 96.6 | 99.8 | – | 92.2 | 103 | –
99 nM | 99.6 | 105 | 110 | – | – | 106 | – | – | 98.6
990 nM | 116 | 102 | 108 | – | – | 118 | – | – | 116

Nc1ccccc1NC(=O)c1ccc(CNc2nccc(-c3cccnc3)n2)cc1 [Mocetinostat]
normalised viability [%]
Settings | [1] | [2] | [3] | [4] | [5] | [6] | [7] | [8] | [9]
3 nM | – | – | – | 89.2 | 93.3 | – | 108 | 116 | –
10 nM | 113 | 91 | 74.8 | – | – | 102 | – | – | 101
30 nM | – | – | – | 93.7 | 82 | – | 119 | 96.1 | –
100 nM | – | – | – | 99.8 | 86.9 | – | 74 | 87.5 | –
1000 nM | 96.8 | 67.1 | 40.5 | – | – | 54.6 | – | – | 55.5
10000 nM | 25.6 | 35.9 | 18.1 | – | – | 23.5 | – | – | 3.29

CCC/C=C/C=C/C(=O)O[C@H]1/C(=C/C(=O)OC)C[C@H]2C[C@H]([C@@H](C)O)OC(=O)C[C@H](O)C[C@@H]3C[C@H](OC(C)=O)C(C)(C)[C@](O)(C[C@@H]4C/C(=C/C(=O)OC)C[C@H](/C=C/C(C)(C)[C@]1(O)O2)O4)O3 [Bryostatin 1]
Settings | normalised viability [%]
[1], 10 nM | 109
[1], 1000 nM | 109
[1], 10000 nM | 102
[2], 0.1 nM | 100
[2], 10 nM | 87.9
[2], 100 nM | 100
[3], 0.1 nM | 90.7
[3], 10 nM | 89.1
[3], 100 nM | 93.4
[4], 0.03 nM | 91.6
[4], 0.3 nM | 101
[4], 1 nM | 88
[5], 0.03 nM | 95.3
[5], 0.3 nM | 107
[5], 1 nM | 117
[6], 0.1 nM | 112
[6], 10 nM | 116
[6], 100 nM | 115
[7], 0.03 nM | 104
[7], 0.3 nM | 106
[7], 1 nM | 107
[8], 0.03 nM | 105
[8], 0.3 nM | 95
[8], 1 nM | 94.8
[9], 10 nM | 95
[9], 1000 nM | 67
[9], 10000 nM | 61.4
